Type in all cases: cell-based
Experiment [1] concerns spores of ATCC 43255 strain. In words: Inhibition of germination of C. difficile spores (MIC), strain ATCC 43255. Conditions: strain 43255, sodium taurocholate as germinant, BHIS medium, 37° C., OD580 for 60 min, read-out: MIC (minimum concentration that completely inhibits spore germination). The procedure: (§1) According to a method disclosed in “The Journal of Infectious Diseases. 2013; 207: 1498-504”, spores of ATCC BBA1870, ATCC 43255 and ATCC 630 strains were obtained by culture and purification, and stored at 4° C.
(§2) Spore preparation: the C. difficile spores stored at 4° C. were heat-activated for 30 min at 65° C., centrifuged at 9,400 g for 2 min, and washed three times to remove any self-germinating spores.
(§3) Control drug: three cholic acid derivatives, a compound CamSA, a compound 20β (prepared by the method of “Journal of Medicinal Chemistry. 2017, 60 (8): 3451-3471”), and a compound 12a (prepared by the method of “Journal of Medicinal Chemistry. 2018, 61, 6759-6778”), were used as control drugs.
(§4) Compound preparation: the compound of the present disclosure, and the positive control drugs CamSA, 20β, and 12a were dissolved in DMSO, to prepare a stock solution with a concentration of 10 mM (prepared for immediate use).
(§5) The detection was conducted in a 96-well cell culture plate at a constant temperature of 37° C.; a final volume of each well of the 96-well plate was […] and a buffer was the BHIS medium; 150 μl of spores and drugs were added to the well in advance, and 50 μl of 4 mg/ml sodium taurocholate was added; OD580 was detected every 1 min immediately using a microplate reader, for continuously 60 min. A germination agent control group and a non-germination group were set up; after the detection, a final OD value of each well was compared with an initial value, and compared with the germination agent group to calculate a germination rate and an inhibition rate. A formula for the germination rate was:
(§6) Inhibition rate=100%−germination rate.

Experiment [2] deals with spores of ATCC 630 strain. In words: Inhibition of germination of C. difficile spores (MIC), strain ATCC 630. The following applies: strain 630, sodium taurocholate as germinant, BHIS medium, 37° C., OD580 for 60 min, read-out: MIC (minimum concentration that completely inhibits spore germination). The procedure:
as §1, §2, §3, §4, §5, §6

The subject of experiment [3] is spores of ATCC BBA1870 strain. Briefly: Inhibition of germination of C. difficile spores (MIC), strain ATCC BBA1870. Conditions: strain 1870, sodium taurocholate as germinant, BHIS medium, 37° C., OD580 for 60 min, read-out: MIC (minimum concentration that completely inhibits spore germination). The procedure: as §1, §2, §3, §4, §5, §6
Setting [4] is: Clostridioides difficile, ATCC43255, 1 h.
Where [5] appears, read: Clostridioides difficile, ATCC630, 1 h.
The mark [6] stands for this setting: Clostridioides difficile, ATCCBBA1870STRAIN, 1 h.

In brackets after ≈: the same amount, converted by molar mass. Where two headings read alike, the source gives them in different places.

As for `C[C@H](CCC(=O)Nc1cccc(S(=O)(=O)O)c1)[C@H]1CC[C@H]2[C@@H]3[C@H](O)C[C@@H]4C[C@H](O)CC[C@]4(C)[C@H]3C[C@H](O)[C@]12C` [CamSA, reference compound], the MIC in experiment [1], in experiment [2] and in experiment [3] was over 256 µM throughout.

Turning to `C[C@H](CC(=O)NCC1CC1)[C@H]1CC[C@H]2[C@@H]3[C@H](O)C[C@@H]4C[C@H](O)CC[C@]4(C)[C@H]3CC[C@]12C` [Compound I-1], the MIC in experiment [1] (setting [4]), in experiment [2] (setting [5]) and in experiment [3] (setting [6]) was 32 µM (≈ 13.8 µg/mL) throughout.

Regarding `C[C@H](CC(=O)NCc1ccco1)[C@H]1CC[C@H]2[C@@H]3[C@H](O)C[C@@H]4C[C@H](O)CC[C@]4(C)[C@H]3CC[C@]12C` [Compound I-2], the MIC in experiment [1] (setting [4]) came to 8 µM (≈ 3.66 µg/mL); in experiment [2] (setting [5]), 8 µM (≈ 3.66 µg/mL); in experiment [3] (setting [6]) it was 16 µM (≈ 7.32 µg/mL).

For `C[C@H](CC(=O)NCc1cccs1)[C@H]1CC[C@H]2[C@@H]3[C@H](O)C[C@@H]4C[C@H](O)CC[C@]4(C)[C@H]3CC[C@]12C` [Compound I-3], the MIC in experiment [1] (setting [4]) came to 8 µM (≈ 3.79 µg/mL); in experiment [2] (setting [5]) it was 4 µM (≈ 1.89 µg/mL); in experiment [3] (setting [6]), 8 µM (≈ 3.79 µg/mL).

As for `C[C@H](CC(=O)NCc1ccccc1)[C@H]1CC[C@H]2[C@@H]3[C@H](O)C[C@@H]4C[C@H](O)CC[C@]4(C)[C@H]3CC[C@]12C` [Compound I-4], the MIC in experiment [1] (setting [4]) stood at 16 µM (≈ 7.48 µg/mL); in experiment [2] (setting [5]), 8 µM (≈ 3.74 µg/mL); in experiment [3] (setting [6]) it was 32 µM (≈ 15 µg/mL).

Consider `C[C@H](CC(=O)NCc1cccnc1)[C@H]1CC[C@H]2[C@@H]3[C@H](O)C[C@@H]4C[C@H](O)CC[C@]4(C)[C@H]3CC[C@]12C` [Compound I-5], for which the MIC in experiment [1] (setting [4]) came to 16 µM (≈ 7.5 µg/mL); in experiment [2] (setting [5]), 32 µM (≈ 15 µg/mL); in experiment [3] (setting [6]), 16 µM (≈ 7.5 µg/mL).

With `C[C@H](CC(=O)NCc1ccccn1)[C@H]1CC[C@H]2[C@@H]3[C@H](O)C[C@@H]4C[C@H](O)CC[C@]4(C)[C@H]3CC[C@]12C` [Compound I-6], the MIC in experiment [1] (setting [4]), in experiment [2] (setting [5]) and in experiment [3] (setting [6]) was 64 µM (≈ 30 µg/mL) in each case.

As to `C[C@H](CC(=O)NCc1nccs1)[C@H]1CC[C@H]2[C@@H]3[C@H](O)C[C@@H]4C[C@H](O)CC[C@]4(C)[C@H]3CC[C@]12C` [Compound I-7], the MIC in experiment [1] (setting [4]), in experiment [2] (setting [5]) and in experiment [3] (setting [6]) was 16 µM (≈ 7.6 µg/mL) throughout.

For the compound `CC(NC(=O)C[C@@H](C)[C@H]1CC[C@H]2[C@@H]3[C@H](O)C[C@@H]4C[C@H](O)CC[C@]4(C)[C@H]3CC[C@]12C)c1cccs1` (stereo partly drawn) [Compound I-8], the results for the MIC in experiment [1] (setting [4]), in experiment [2] (setting [5]) and in experiment [3] (setting [6]) were 2 µM (≈ 0.976 µg/mL), 4 µM (≈ 1.95 µg/mL) and 4 µM (≈ 1.95 µg/mL), respectively.

On to `CC(NC(=O)C[C@@H](C)[C@H]1CC[C@H]2[C@@H]3[C@H](O)C[C@@H]4C[C@H](O)CC[C@]4(C)[C@H]3CC[C@]12C)c1ccccc1` (stereo partly drawn) [Compound I-9], for which the MIC in experiment [1] (setting [4]), in experiment [2] (setting [5]) and in experiment [3] (setting [6]) was 8 µM (≈ 3.85 µg/mL) throughout.

Turning to `C[C@H](CC(=O)NCC1CC1)[C@H]1CC[C@H]2[C@@H]3[C@@H](O)C[C@@H]4C[C@H](O)CC[C@]4(C)[C@H]3CC[C@]12C` [Compound I-10], the MIC in experiment [1] (setting [4]), in experiment [2] (setting [5]) and in experiment [3] (setting [6]) was 32 µM (≈ 13.8 µg/mL) throughout.

For the compound `C[C@H](CC(=O)NCc1ccco1)[C@H]1CC[C@H]2[C@@H]3[C@@H](O)C[C@@H]4C[C@H](O)CC[C@]4(C)[C@H]3CC[C@]12C` [Compound I-11], the MIC in experiment [1] (setting [4]), in experiment [2] (setting [5]) and in experiment [3] (setting [6]) was 64 µM (≈ 29.3 µg/mL) throughout.

For the compound `C[C@H](CC(=O)NCc1cccs1)[C@H]1CC[C@H]2[C@@H]3[C@@H](O)C[C@@H]4C[C@H](O)CC[C@]4(C)[C@H]3CC[C@]12C` [Compound I-12], the MIC in experiment [1] (setting [4]) was 256 µM (≈ 121 µg/mL); in experiment [2] (setting [5]), 256 µM (≈ 121 µg/mL); in experiment [3] (setting [6]), 128 µM (≈ 60.6 µg/mL).

Turning to `C[C@H](CC(=O)NCc1ccco1)[C@H]1CC[C@H]2[C@@H]3C(=O)C[C@@H]4C[C@H](O)CC[C@]4(C)[C@H]3CC[C@]12C` [Compound I-13], the MIC in experiment [1] (setting [4]), in experiment [2] (setting [5]) and in experiment [3] (setting [6]) was 16 µM (≈ 7.29 µg/mL) in each case.

`C[C@H](CC(=O)NCc1cccs1)[C@H]1CC[C@H]2[C@@H]3C(=O)C[C@@H]4C[C@H](O)CC[C@]4(C)[C@H]3CC[C@]12C` [Compound I-14]: the MIC in experiment [1] (setting [4]), in experiment [2] (setting [5]) and in experiment [3] (setting [6]) was 4 µM (≈ 1.89 µg/mL) in each case.

Regarding `C[C@H](CC(=O)NCc1nccs1)[C@H]1CC[C@H]2[C@@H]3C(=O)C[C@@H]4C[C@H](O)CC[C@]4(C)[C@H]3CC[C@]12C` [Compound I-15], the MIC in experiment [1] (setting [4]) is 64 µM (≈ 30.3 µg/mL); in experiment [2] (setting [5]), 32 µM (≈ 15.1 µg/mL); in experiment [3] (setting [6]), 32 µM (≈ 15.1 µg/mL).

In the case of `C[C@H](CC(=O)NCc1ccccn1)[C@H]1CC[C@H]2[C@@H]3C(=O)C[C@@H]4C[C@H](O)CC[C@]4(C)[C@H]3CC[C@]12C` [Compound I-16], the MIC in experiment [1] (setting [4]), in experiment [2] (setting [5]) and in experiment [3] (setting [6]) was 256 µM (≈ 119 µg/mL) each time.

Consider `C[C@H](CC(=O)NCc1ccco1)[C@H]1CC[C@H]2[C@@H]3[C@H](O)C[C@@H]4C[C@H](O)CC[C@]4(C)[C@H]3C[C@H](O)[C@]12C` [Compound I-17], for which the figures for the MIC in experiment [1] (setting [4]), in experiment [2] (setting [5]) and in experiment [3] (setting [6]) were 32 µM (≈ 15.2 µg/mL), 32 µM (≈ 15.2 µg/mL) and 64 µM (≈ 30.3 µg/mL), respectively.

Consider `C[C@H](CC(=O)NCc1cccs1)[C@H]1CC[C@H]2[C@@H]3[C@H](O)C[C@@H]4C[C@H](O)CC[C@]4(C)[C@H]3C[C@H](O)[C@]12C` [Compound I-18], for which the results for the MIC in experiment [1] (setting [4]), in experiment [2] (setting [5]) and in experiment [3] (setting [6]) were 8 µM (≈ 3.92 µg/mL), 8 µM (≈ 3.92 µg/mL) and 32 µM (≈ 15.7 µg/mL), respectively.

Consider `CC(NC(=O)C[C@@H](C)[C@H]1CC[C@H]2[C@@H]3[C@H](O)C[C@@H]4C[C@H](O)CC[C@]4(C)[C@H]3C[C@H](O)[C@]12C)c1ccccc1` (stereo partly drawn) [Compound I-19], for which the MIC in experiment [1] (setting [4]) was 32 µM (≈ 15.9 µg/mL); in experiment [2] (setting [5]), 32 µM (≈ 15.9 µg/mL); in experiment [3] (setting [6]) it was 64 µM (≈ 31.9 µg/mL).

Consider `C[C@H](CC(=O)NCc1cccs1)[C@H]1CC[C@H]2[C@@H]3C(=O)C[C@@H]4C[C@H](O)CC[C@]4(C)[C@H]3C[C@H](O)[C@]12C` [Compound I-20], for which the MIC turned out to be 32 µM (≈ 15.6 µg/mL) in experiment [1] (setting [4]), 32 µM (≈ 15.6 µg/mL) in experiment [2] (setting [5]) and 64 µM (≈ 31.2 µg/mL) in experiment [3] (setting [6]).

For the compound `C[C@H](CC(=O)NCc1cccs1)[C@H]1CC[C@H]2[C@@H]3[C@H](O)[C@H](O)[C@@H]4C[C@H](O)CC[C@]4(C)[C@H]3CC[C@]12C` [Compound I-21], the figures for the MIC in experiment [1] (setting [4]), in experiment [2] (setting [5]) and in experiment [3] (setting [6]) were 8 µM (≈ 3.92 µg/mL), 4 µM (≈ 1.96 µg/mL) and 8 µM (≈ 3.92 µg/mL), respectively.

For the compound `CC(NC(=O)C[C@@H](C)[C@H]1CC[C@H]2[C@@H]3[C@H](O)[C@H](O)[C@@H]4C[C@H](O)CC[C@]4(C)[C@H]3CC[C@]12C)c1cccs1` (stereo partly drawn) [Compound I-22], the MIC in experiment [1] (setting [4]), in experiment [2] (setting [5]) and in experiment [3] (setting [6]) was 8 µM (≈ 4.03 µg/mL) each time.

For the compound `CC(NC(=O)C[C@@H](C)[C@H]1CC[C@H]2[C@@H]3C(=O)C[C@@H]4CC(=O)CC[C@]4(C)[C@H]3CC[C@]12C)c1ccccc1` (stereo partly drawn) [Compound I-23], the MIC came out at 2 µM (≈ 0.955 µg/mL) in experiment [1] (setting [4]), 2 µM (≈ 0.955 µg/mL) in experiment [2] (setting [5]) and 4 µM (≈ 1.91 µg/mL) in experiment [3] (setting [6]).

For the compound `C[C@H](NC(=O)C[C@@H](C)[C@H]1CC[C@H]2[C@@H]3C(=O)C[C@@H]4CC(=O)CC[C@]4(C)[C@H]3CC[C@]12C)c1ccccc1` [Compound I-24], the MIC in experiment [1] (setting [4]), in experiment [2] (setting [5]) and in experiment [3] (setting [6]) was over 256 µM in each case.

On to `C[C@H](CC(=O)N[C@H](C)c1ccccc1)[C@H]1CC[C@H]2[C@@H]3C(=O)C[C@@H]4CC(=O)CC[C@]4(C)[C@H]3CC[C@]12C` [Compound I-25], for which the values for the MIC in experiment [1] (setting [4]), in experiment [2] (setting [5]) and in experiment [3] (setting [6]) were 1 µM (≈ 0.478 µg/mL), 1 µM (≈ 0.478 µg/mL) and 2 µM (≈ 0.955 µg/mL), respectively.

The values are drawn from US20230135729A1, “COMPOUND WITH ANTI-SPORE ACTIVITY AND PHARMACEUTICAL COMPOSITION THEREOF” (priority 2020, published 2023).
